Results taken from patent publication US20220112479A1, “COMPOUNDS STABILIZING AMYLASES IN LIQUIDS” (BASF SE, priority 2018, published 2022).

Tests used:
Assay type in all cases: biochemical
Amylase = test: amylase storage stability in liquid laundry formulation (pNP release from Ethyliden-blocked-pNPG7); set-up: key: % of activity in reference formulation at time 0; details: 2.5 wt % component (a), storage at 37° C.
Protocol: (§1) The storage stability of amylase was assessed at 37° C.
Base test formulations were manufactured by making base formulations VI to IX by mixing the components according to Table 4.
(§2) Amylase activity at certain points in time as indicated in Table 5 was measured quantitatively by the release of the chromophore para-nitrophenol (pNP) from the substrate (Ethyliden-blocked-pNPG7, Roche Applied Science 10880078103). The alpha-amylase degrades the substrate into smaller molecules and α-glucosidase (Roche Applied Science 11626329103), which is present in excess compared to the amylase, process these smaller products until pNP is released; the release of pNP, measured via an increase of absorption at 405 nm, is directly proportional to the amylase activity of the sample. Amylase standard: Termamyl 120 L (Sigma 3403).
(§3) The amylolytic activity values provided were calculated referring to the value determined in the reference formulation at the time 0.
(§4) The nomenclature of formulations is as follows: the Roman number before the full stop characterizes the base formulation, the Arabian number the type of compound (A.# compound according to invention (component (a)); B.# comparative compound).

Amy1=Stainzyme = test: amylase storage stability in liquid formulation (pNP release from Ethyliden-blocked-pNPG7); set-up: key: % of activity in reference formulation at time 0; details: storage at 37° C.
Summary of the method: (§5)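 Amylase (dosed as active protein) was stored at 37 °C in liquid base formulations with or without test or comparative compounds. Activity at set time points was measured as pNP release (A405) from blocked-pNPG7 with excess α-glucosidase, expressed relative to the reference formulation at time 0.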

Amy2=Amplify = test: as above; set-up: key: % of activity in reference formulation at time 0; details: storage at 37° C.
Summary of the method: as §5

[1] = system: Amy3=Stainzyme Plus L (12L); test: as above; details: base formulation II., 1.5 wt % component (a), storage at 37° C.
Protocol: as §1
Base test formulations were manufactured by making base formulations I to V by mixing the components according to Table 1.
Amylases used: Amy1=Stainzyme, Amy2=Amplify, Amy3=Stainzyme Plus L (12L)
The respective component (a) or comparative compound was added, if applicable, to the respective base formulation in amounts as indicated in Table 1.
The amount of amylase as provided in Table 1 refers to active protein.
Water was added to accomplish the balance to 100.
as §2, with “Table 2” for “Table 5”
as §3, §4

For `CCOC(=O)CC(O)(CC(=O)OCC)C(=O)OCC` [A.1, Triethylcitrate], the “amylase activity, referring to reference formulation at time 0” value (“amylase activity, referring” for short) (Amylase; laundry base formulation IX. (2.5 DTPA), 3 d) was 98, the “amylase activity, referring” value (Amylase; laundry base formulation IX. (2.5 DTPA), 7 d) was 90 and the “amylase activity, referring” value (Amylase; laundry base formulation IX. (2.5 DTPA), 14 d) was 85. The “amylase activity, referring” value (Amylase; laundry base formulation IX. (2.5 DTPA), 21 d) was 78, the “amylase activity, referring” value (Amylase; laundry base formulation IX. (2.5 DTPA), 28 d) was 70 and the “amylase activity, referring” value (Amylase; laundry base formulation IX. (2.5 DTPA), T0) was 99. For the same compound, the “amylase activity, referring” value (Amylase; laundry base formulation VI. (2.0 EDTA), 3 d) was 98, the “amylase activity, referring” value (Amylase; laundry base formulation VI. (2.0 EDTA), 7 d) was 91 and the “amylase activity, referring” value (Amylase; laundry base formulation VI. (2.0 EDTA), 14 d) was 86. For the same compound, the “amylase activity, referring” value (Amylase; laundry base formulation VI. (2.0 EDTA), 21 d) was 81, the “amylase activity, referring” value (Amylase; laundry base formulation VI. (2.0 EDTA), 28 d) was 73 and the “amylase activity, referring” value (Amylase; laundry base formulation VI. (2.0 EDTA), T0) was 100. The “amylase activity, referring” value (Amylase; laundry base formulation VII. (2.0 EDTA), 3 d) was 95, the “amylase activity, referring” value (Amylase; laundry base formulation VII. (2.0 EDTA), 7 d) was 88 and the “amylase activity, referring” value (Amylase; laundry base formulation VII. (2.0 EDTA), 14 d) was 79. The “amylase activity, referring” value (Amylase; laundry base formulation VII. (2.0 EDTA), 21 d) was 73, the “amylase activity, referring” value (Amylase; laundry base formulation VII. (2.0 EDTA), 28 d) was 68 and the “amylase activity, referring” value (Amylase; laundry base formulation VII. (2.0 EDTA), T0) was 100. For the same compound, the “amylase activity, referring” value (Amylase; laundry base formulation VIII. (2.5 DTPA, no Savinase), 3 d) was 98, the “amylase activity, referring” value (Amylase; laundry base formulation VIII. (2.5 DTPA, no Savinase), 7 d) was 93 and the “amylase activity, referring” value (Amylase; laundry base formulation VIII. (2.5 DTPA, no Savinase), 14 d) was 88. The “amylase activity, referring” value (Amylase; laundry base formulation VIII. (2.5 DTPA, no Savinase), 21 d) was 83, the “amylase activity, referring” value (Amylase; laundry base formulation VIII. (2.5 DTPA, no Savinase), 28 d) was 75 and the “amylase activity, referring” value (Amylase; laundry base formulation VIII. (2.5 DTPA, no Savinase), T0) was 100. For the same compound, the “amylase activity, referring” value (Amy1=Stainzyme; base formulation I., 1.5 wt % component (a), 3 d) was 98, the “amylase activity, referring” value (Amy1=Stainzyme; base formulation I., 1.5 wt % component (a), 7 d) was 93 and the “amylase activity, referring” value (Amy1=Stainzyme; base formulation I., 1.5 wt % component (a), 14 d) was 88. For the same compound, the “amylase activity, referring” value (Amy1=Stainzyme; base formulation I., 1.5 wt % component (a), 21 d) was 80, the “amylase activity, referring” value (Amy1=Stainzyme; base formulation I., 1.5 wt % component (a), 28 d) was 74 and the “amylase activity, referring” value (Amy1=Stainzyme; base formulation I., 1.5 wt % component (a), 42 d) was 61. The “amylase activity, referring” value (Amy1=Stainzyme; base formulation I., 1.5 wt % component (a), T0) was 100, the “amylase activity, referring” value (Amy1=Stainzyme; base formulation IV., 2.0 wt % component (a), 3 d) was 96 and the “amylase activity, referring” value (Amy1=Stainzyme; base formulation IV., 2.0 wt % component (a), 7 d) was 92. The “amylase activity, referring” value (Amy1=Stainzyme; base formulation IV., 2.0 wt % component (a), 14 d) was 88, the “amylase activity, referring” value (Amy1=Stainzyme; base formulation IV., 2.0 wt % component (a), 21 d) was 83 and the “amylase activity, referring” value (Amy1=Stainzyme; base formulation IV., 2.0 wt % component (a), 28 d) was 73. The “amylase activity, referring” value (Amy1=Stainzyme; base formulation IV., 2.0 wt % component (a), 42 d) was 61, the “amylase activity, referring” value (Amy1=Stainzyme; base formulation IV., 2.0 wt % component (a), T0) was 98 and the “amylase activity, referring” value (Amy2=Amplify; base formulation III., 1.5 wt % component (a), 3 d) was 98. For the same compound, the “amylase activity, referring” value (Amy2=Amplify; base formulation III., 1.5 wt % component (a), 7 d) was 95, the “amylase activity, referring” value (Amy2=Amplify; base formulation III., 1.5 wt % component (a), 14 d) was 91 and the “amylase activity, referring” value (Amy2=Amplify; base formulation III., 1.5 wt % component (a), 21 d) was 86. The “amylase activity, referring” value (Amy2=Amplify; base formulation III., 1.5 wt % component (a), 28 d) was 78, the “amylase activity, referring” value (Amy2=Amplify; base formulation III., 1.5 wt % component (a), 42 d) was 68 and the “amylase activity, referring” value (Amy2=Amplify; base formulation III., 1.5 wt % component (a), T0) was 100. For the same compound, the “amylase activity, referring” value (Amy2=Amplify; base formulation V., 2.0 wt % component (a), 3 d) was 96, the “amylase activity, referring” value (Amy2=Amplify; base formulation V., 2.0 wt % component (a), 7 d) was 91 and the “amylase activity, referring” value (Amy2=Amplify; base formulation V., 2.0 wt % component (a), 14 d) was 87. For the same compound, the “amylase activity, referring” value (Amy2=Amplify; base formulation V., 2.0 wt % component (a), 21 d) was 80, the “amylase activity, referring” value (Amy2=Amplify; base formulation V., 2.0 wt % component (a), 28 d) was 73 and the “amylase activity, referring” value (Amy2=Amplify; base formulation V., 2.0 wt % component (a), 42 d) was 62. For the same compound, the “amylase activity, referring” value (Amy2=Amplify; base formulation V., 2.0 wt % component (a), T0) was 98, the “amylase activity, referring” value ([1]; 3 d) was 100 and the “amylase activity, referring” value ([1]; 7 d) was 94. For the same compound, the “amylase activity, referring” value ([1]; 14 d) was 90, the “amylase activity, referring” value ([1]; 21 d) was 84 and the “amylase activity, referring” value ([1]; 28 d) was 77. For the same compound, the “amylase activity, referring” value ([1]; 42 d) was 65 and the “amylase activity, referring” value ([1]; T0) was 100.
